Here are results for 39 compounds from patent US6894068B2, “Substituted benzimidazoles as non-nucleoside inhibitors of reverse transcriptase” (The United States of America as represented by the …, priority 1997, dated 2005).

The target of one data set is HIV-1 WT RT (Human immunodeficiency virus type 1 group M subtype B, UniProt P03366). Description: biochemical. The class given is biochemical. The conditions noted are these: for inhibition at 10 µM: read-out: % inhibn (10 μM).
Another data set has as its system HIV-1 WT virus (NL4-3). Description: microbe, parasite or virus in culture. The class given is cell-based. To be noted: for EC50 / EC50 (μM): Table 11, CEMSS/NL4-3, NRVC = no reduction in viral CPE; for EC50: read-out: EC50; for cytotoxicity and anti-viral effect, summary graph, result in words: FIGS. 10-12; for inhibitory potency against HIV-1 (CIC50), result in words: CEMSS cell culture, WT virus (NL4-3), relative to parent compounds 1 and 2. As for the experimental part: Evaluation of these compounds for the inhibition of HIV-1 was determined as the fifty percent cell culture inhibitory concentration (CIC50) in CEMSS cell culture with WT virus (NL4-3).
In this Example, the antiviral and cellular toxicity of NNRTIs was investigated, using the cytopathic cell killing assay described by Yang (Yang et al., “Characteristics of a Group of Non-nucleoside Reverse Transcriptase Inhibitors with Structural Diversity and Potent Anti-Human Immunodeficiency Virus Activity,” Leukemia 9:S75-S85 [1995]). Briefly, in this method cells (e.g., the CEM-SS cell line, available from the NIAID AIDS Research and Reference Program [ARRRP]) were seeded at a density of 5×10^3 cells/well, into the wells of a 96-well microtiter plate. The cells were then infected with HIV virus (either mutant or WT), at a multiplicity of infection (MOI) previously determined to provide complete cell killing by 6 days of culture post-infection (e.g., MOI of 0.01-0.05). Each of the HIV isolates was pre-titered to induce equivalent levels of infection based on cell killing or virus production, prior to their use in these assays. A range of test compound concentrations was added to the wells in triplicate (e.g., serial half-log dilutions) to evaluate inhibition of HIV infection. Controls for each assay included drug controls (drug colorimetric control wells), drug cytotoxicity control wells (cells with drug), virus control wells (cells with virus), and cell viability controls (cells only). Positive control drugs (e.g. AZT and ddC) were also run in parallel.
After six days of incubation at 37° C., cell viability was determined spectrophotometrically at 450 nm for each well, using the metabolic reduction of XTT to a soluble colored formazan. (See, Gartner and Popovic, “Virus Isolation and Production, in Aldovini and Walker (eds.), Techniques in HIV Research, Stockton Press, NY, pp. […] [1991]; and Nara and Fischinger, “Quantitative Infectivity Assay for HIV-1 and HIV-2, ” Nature 332:469-470 [1988]).
The in vitro therapeutic index (TI50) was defined as the fold-difference between the EC50 and IC50. The results for the various compounds are included in FIGS. 8 and 19.

[1] abbreviates: Human immunodeficiency virus 1, NL43, CEM-SS.

Values joined by “and” are separate entries in the source; they are usually repeats but may differ in a detail not shown here. Identical values can stand only once. Like-named read-outs stand apart in the source and are kept apart here.

Usually IC50 stands for the point on the concentration scale where inhibition reaches its midpoint. For orientation: EC50 means the concentration that produces a half-maximal response. Take `Cc1cccc2c1nc(CO)n2Cc1c(F)cccc1F` [Compound 48, 1-(2,6-difluorobenzyl)-2-hydroxymethyl-4-methylbenzimidazole]: the inhibition at 10 µM at HIV-1 WT RT (Table 3, 10 μM drug, WT RT, rC-dG template primer) turned out to be 12%. The “% inhibn (1 μM)” value on HIV-1 WT RT (Table 6, 1 μM drug, WT HIV-1 RT, average of two experiments done in triplicates) was found to be 51%. Besides, on HIV-1 WT RT (Table 11, WT RT, read-out: IC50), the IC50 is 1880 nM. Moreover, the EC50 in the data set with HIV-1 WT virus (NL4-3) was 2400 nM.

As usually defined, the melting point is the temperature of the solid-liquid transition. Regarding `Cc1cc(C)c2nc(-c3c(F)cccc3F)n(Cc3c(F)cccc3F)c2c1`, the melting point lay within 153 to 154 °C.

As for `O=C(c1c(F)cccc1F)n1c(-c2c(F)cccc2F)nc2ccccc21` [Compound 47, 1-(2,6-difluorobenzoyl)-2-(2,6-difluorophenyl)benzimidazole], on HIV-1 WT RT (Table 2, 10 μM drug, WT RT, rC-dG template primer), the inhibition at 10 µM stood at 8%. In addition, the “RT inhibition, result in words” value on HIV-1 WT RT (WT RT) was “did not show appreciable RT inhibition activity”.

As for `C=C(C)c1cccc2c1nc(-c1c(F)cccc1F)n2Cc1c(F)cccc1F` [Compound 66, 1-(2,6-Difluorobenzyl)-2-(2,6-difluorophenyl)-4-isopropenylbenzimidazole], the melting point was 156 to 158 °C. Also, the EC50 in the data set with HIV-1 WT virus (NL4-3) (setting [1]) came out at 1440 nM.

Take `CC(C)(O)c1cccc2c1nc(-c1c(F)cccc1F)n2Cc1c(F)cccc1F` [Compound 65, 1-(2,6-Difluorobenzyl)-2-(2,6-difluorophenyl)-4-benzimidazoyl-2-propanol]: the EC50 with HIV-1 WT virus (NL4-3) came to 6340 nM.

`Fc1cccc(F)c1COCc1nc2ccccc2n1Cc1c(F)cccc1F` [Compound 32, 1-(2,6-difluorobenzyl)-2-(2,6-difluorobenzyloxymethyl)benzimidazole] yielded a melting point of 109 °C.

Consider `Cc1cccc2c1nc(-c1ccc3ccccc3c1)n2Cc1c(F)cccc1F`, for which the melting point fell in the range of 175 to 176 °C.

The compound `Fc1cccc(F)c1Cn1c(-c2ccccc2)nc2ccccc21` gave a melting point of 163 °C.

Compound `COc1cccc2c1nc(C1CC1)n2Cc1c(F)cccc1F` had a melting point of 136 to 139 °C.

`Cc1nc2ccccc2n1Cc1c(F)cccc1F` [Compound 35, 1-(2,6-difluorobenzyl)-2-methylbenzimidazole] gave a melting point of 99 °C.

Regarding `OCc1cccc2c1nc(-c1c(F)cccc1F)n2Cc1c(F)cccc1F` [Compound 67, 1-(2,6-Difluorobenzyl)-2-(2,6-difluorophenyl)-4-hydroxymethylbenzimidazole], in the data set on HIV-1 WT virus (NL4-3) (setting [1]), the EC50 amounted to 23 nM.

For the compound `CC(=O)NCc1cccc2c1nc(-c1c(F)cccc1F)n2Cc1c(F)cccc1F` [Compound 72], in the data set on HIV-1 WT virus (NL4-3), the “EC50 (μM)” value is “NRVC”.

With `Fc1cccc(F)c1Cn1c(-c2c(F)cccc2F)nc2cc(Cl)ccc21`, the melting point is 136 °C and 136 to 137 °C.

Turning to `Oc1cccc2c1nc(-c1c(F)cccc1F)n2Cc1c(F)cccc1F` [Compound 52, 1-(2,6-Difluorobenzyl)-2-(2,6-difluorophenyl)-4-hydroxyl-benzimidazole], the melting point was in the range of 257 to 259 °C. For the same compound, the EC50 in the data set with HIV-1 WT virus (NL4-3) (setting [1]) was found to be 650 nM.

For `Cc1ccc2nc(-c3c(F)cccc3F)n(Cc3c(F)cccc3F)c2c1`, the melting point fell in the range of 172 to 173 °C.

As for `O=Cc1cccc2c1nc(-c1c(F)cccc1F)n2Cc1c(F)cccc1F` [Compound 68, 1-(2,6-Difluorobenzyl)-2-(2,6-difluorophenyl)-benzimidazole-4-carbaldehyde], the melting point is 151 to 153 °C. In addition, in the data set with HIV-1 WT virus (NL4-3) (setting [1]), the EC50 amounted to 120 nM.

In turn, `Fc1cccc(F)c1Cn1c(-c2c(F)cccc2F)nc2cc(Br)ccc21` [Compound 38, 1-(2,6-Difluorobenzyl)-2-(2,6-difluorophenyl)-5-bromobenzimidazole] showed a melting point of 155 to 156 °C. Further, the “cytotoxicity and anti-viral effect, summary graph, result in words” value in the data set with HIV-1 WT virus (NL4-3) was “inactive”.

`Cc1cccc2c1nc(-c1cccc3ccccc13)n2Cc1c(F)cccc1F` [Compound 37, 1-(2,6-difluorobenzyl)-2-(1-naphthyl)-4-methylbenzimidazole] registered a melting point of 121 to 123 °C.

Compound `NC(=O)c1cccc2c1nc(-c1c(F)cccc1F)n2Cc1c(F)cccc1F` [Compound 62, 1-(2,6-difluorobenzyl)-2-(2,6-difluorophenyl)benzimidazole-4-carboxylic acid amide] displayed a melting point of 260 to 261 °C. Also, in the data set on HIV-1 WT virus (NL4-3), the “inhibitory potency against HIV-1 (CIC50), result in words” value (from here on “inhibitory potency”) is reported as “clearly detrimental to potency”. Moreover, the EC50 with HIV-1 WT virus (NL4-3) (setting [1]) turned out to be 4900 nM.

`Cc1cccc2c1nc(C(C)C)n2Cc1c(F)cccc1F` [Compound 34, 1-(2,6-difluorobenzyl)-2-isopropyl-4-methylbenzimidazole] registered a melting point of 151 to 153 °C. For the same compound, the “cytotoxicity and anti-viral effect, summary graph, result in words” value in the data set on HIV-1 WT virus (NL4-3) is on record as “effective therapeutic dose”.

In the case of `N=C(NO)c1cccc2c1nc(-c1c(F)cccc1F)n2Cc1c(F)cccc1F` [Compound 61, N-hydroxy 1-(2,6-difluorobenzyl)-2-(2,6-difluorophenyl)benzimidazole-4-carboxamidine], the melting point was 214 to 216 °C and 213 to 216 °C. The “inhibitory potency” value in the data set on HIV-1 WT virus (NL4-3) is reported as “clearly detrimental to potency”. The EC50 in the data set on HIV-1 WT virus (NL4-3) (setting [1]) stood at 190 nM.

The compound `O=[N+]([O-])c1ccc2c(c1)nc(-c1c(F)cccc1F)n2Cc1c(F)cccc1F` displayed a melting point of 168 to 169 °C.

Take `CC(=O)N(C)Cc1cccc2c1nc(-c1c(F)cccc1F)n2Cc1c(F)cccc1F` [Compound 73, 1-(2,6-Difluorobenzyl)-2-(2,6-difluorophenyl)-4-(N-acetyl-N-methyl)-aminomethylbenzimidazole]: in the data set on HIV-1 WT virus (NL4-3), the EC50 stood at 580 nM.

In turn, `Cc1cccc2c1nc(-c1cccnc1)n2Cc1c(F)cccc1F` gave a melting point of 186 to 188 °C.

In the case of `Fc1cccc(F)c1Cn1c(-c2c(F)cccc2F)nc2c(CCl)cccc21` [Compound 69, 1-(2,6-difluorobenzyl)-2-(2,6-difluorophenyl)-4-chloromethylbenzimidazole], the melting point lay within 143 to 144 °C. Besides, the EC50 in the data set on HIV-1 WT virus (NL4-3) (setting [1]) turned out to be 180 nM.

Turning to `Cc1ccc2c(nc(-c3c(F)cccc3F)n2Cc2c(F)cccc2F)c1C`, the melting point was 176 to 177 °C.

`N#Cc1cccc2c1nc(-c1c(F)cccc1F)n2Cc1c(F)cccc1F` [Compound 4007]: on HIV-1 WT RT (Table 1, 10 μM drug, WT RT, rC-dG template primer), the “% inhibn (10 μM)” value turned out to be 26%.

As to `Cc1cccc2c1nc(-c1c(F)cccc1F)n2Cc1c(F)c(F)c(F)c(F)c1F`, the melting point lay within 155 to 156 °C.

In the case of `N#Cc1cccc2c1nc(-c1c(F)cccc1F)n2Cc1c(F)cccc1F` [Compound 60, 1-(2,6-difluorobenzyl)-2-(2,6-difluorophenyl)-4-cyanobenzimidazole], the EC50 with HIV-1 WT virus (NL4-3) (setting [1]) was 430 nM.

`Fc1cccc(F)c1Cn1c(-c2c(F)cccc2F)nc2ccc(Cl)cc21` returned a melting point of 152 to 153 °C.

For the compound `O=S(=O)(c1ccccc1)n1c(-c2c(F)cccc2F)nc2ccccc21`, the melting point was 104 to 106 °C.

Take `Cc1cccc2c1nc(-c1ccncc1)n2Cc1c(F)cccc1F`: the melting point is 171 to 172 °C.

`CC(C)=CCn1c(-c2c(F)cccc2F)nc2c(C)cccc21` [(X = CH3) R = prenyl, 1-(3,3-dimethylallyl)-2-(2,6-difluorophenyl)-4-methylbenzimidazole] had a melting point of 78 to 79 °C.

In the case of `CC(=O)OCc1cccc2c1nc(-c1c(F)cccc1F)n2Cc1c(F)cccc1F` [Compound 51, 1-(2,6-difluorobenzyl)-2-(2,6-difluorophenyl)-4-acetoxymethylbenzimidazole], in the data set with HIV-1 WT virus (NL4-3) (setting [1]), the EC50 came out at 59 nM.

In turn, `Cc1cccc2c1nc(-c1c(F)cccc1F)n2Cc1cccnc1` gave a melting point of 131 to 132 °C.

`COC(=O)c1cccc2c1nc(-c1c(F)cccc1F)n2Cc1c(F)cccc1F` displayed a melting point of 184 to 186 °C.

With `Cc1ccc2c(c1)nc(-c1c(F)cccc1F)n2Cc1c(F)cccc1F`, the melting point was in the range of 147 to 149 °C.

For the compound `O=C(O)c1cccc2c1nc(-c1c(F)cccc1F)n2Cc1c(F)cccc1F` [Compound 64, 1-(2,6-Difluorobenzyl)-2-(2,6-difluorophenyl)benzimidazole-4-carboxylate], the melting point was 179 to 180 °C and 178 to 180 °C. In the data set with HIV-1 WT virus (NL4-3), the “inhibitory potency” value was “clearly detrimental to potency” and the “EC50 (μM)” value is given as “NRVC”.

On to `Cc1cccc2nc(-c3c(F)cccc3F)n(Cc3c(F)cccc3F)c12`, for which the melting point was 177 °C and 177 to 178 °C.
